Measurements from US20040175763A1, “Crohn's disease antibody-binding peptide and method of examining crohn's disease” (priority 2001, published 2004).

Key:
Crohn's disease antibody = assay: Reaction inhibition test with one amino acid-substituted MAP peptides on CDP3 MAP plate (Example 6(2)); format: binding, human; settings: inhibitor MAP peptide 100 μg/mL
Experimental: Referring to the amino acid sequence of CDP peptide, in order to determine the sequence necessary for the specific reactivity to Crohn's disease antibody, the following reaction inhibition test was performed using each of the one amino acid-substituted MAP peptides prepared as above as the reaction inhibitor.
More particularly, using the MAP plate prepared by immobilizing the MAP peptide of CDP3 (see Example 2(1)) as the antigen plate, the test was performed by 3 reaction steps. In the primary reaction, the Crohn's disease patient serum was diluted 100-fold with a sample diluent containing the one amino acid-substituted MAP peptide in a concentration of 100 μg/mL (0.1 M Tris-buffer containing 0.5 M sodium chloride, 1.5% casein, 2% normal goat serum and 0.2% Tween 20) and reacted at 25° C. for one hour. In the secondary reaction, 100 μL/well of the primary reaction mixture was added to the plate and reacted at 25° C. for one hour, after which the plate was washed 3 times. In the tertiary reaction, 100 μL/well of HRP-labeled anti-human IgG (Fc)-specific antibody diluted 5,000-fold in an enzyme-labeled antibody diluent (Tris buffer containing 0.14 M sodium chloride, 0.5% BAS, 5% normal goat serum and 0.05% Tween 20) was added to the plate, and reacted at 25° C. for 1 hour, followed by 3 rounds of washing. Detection was performed as in Example 2(1) to measure the reaction-inhibiting activity of the one amino acid-substituted MAP peptide.

[1] = tested on: Crohn's disease antibody (serum IgG); assay: ELISA using each branched multiple antigenic peptide (MAP peptide) as the antigen; format: binding, human; settings: for Positive rate Ulcerative colitis patients: 20 ulcerative colitis patient sera; for Positive rate Ulcerative colitis patients / Positive rate Healthy volunteers: cut-off mean OD+5SD of 48 healthy volunteer sera; for reaction with ulcerative colitis patient sera or healthy volunteer sera: 20 ulcerative colitis, 48 healthy volunteer serum samples; for Positive rate Healthy volunteers: 48 healthy volunteer sera
Experimental: Using each MAP peptide (the MAP peptides of CDP-1, CDP-2, CDP-3, and CDP-4; see FIG. 2) obtained in Example 1 as the antigen peptide, the reactivity to each serum sample (Crohn's disease patient serum, ulcerative colitis patient serum, and healthy volunteer serum) was evaluated by ELISA.
In the first place, each MAP peptide was immobilized on a 96-well microtiter plate. Thus, this immobilization was carried out in accordance with the protocol which comprises dissolving each MAP peptide in bicarbonate buffer (50 mM, pH 9.6) at a concentration of 1 μg/ml to prepare a MAP solution, adding the solution to the antigen plate, 100 μl per well, then leaving the plate sitting at 4° C. overnight, washing it, adding 300 μl of casein solution ((D)-PBS containing 0.1% casein and 1% Triton X-100), and leaving the plate sitting again at 4° C. overnight.
(i) Using the MAP plates carrying the respective MAP peptides immobilized, the reactivity of each MAP peptide to 20 Crohn's disease patient serum samples, 20 ulcerative colitis patient serum samples and 48 healthy volunteer serum samples was verified by ELISA.
More particularly, a primary reaction was carried out by adding mixture containing 1 μl of the serum antibody and 100 μl of casein solution to each well of the MAP plate, and allowing the reaction to proceed at 37° C. for one hour. After completion of the primary reaction, the plate was washed 4 times and a 20,000-fold dilution of HRP-labeled anti-human IgG(Fc)-specific antibody in casein solution was added into the wells and incubated at 37° C. for one hour to carry out a secondary reaction. After completion of the secondary reaction, the plate was washed 4 times and a color development reaction was carried out. For detection, 100 μl of TMB solution was added to the plate and reacted at room temperature for 10 minutes, at the end of which time the reaction was stopped by adding 100 μl of TMB stop solution (1N sulfuric acid). The absorbance at OD 450 nm was measured with a plate reader to investigate the reactivity to each MAP plate for each serum. […] It can also be seen in FIG. 3 that the reactivity of each MAP peptide to Crohn's disease patient serum varied among different kinds of MAP peptides without consistency.
(ii) Then, using a large number of serum samples (96 Crohn's disease patient serum samples, 20 ulcerative colitis patient serum samples, and 48 healthy volunteer serum samples), the reactivity of the above MAP peptides (the MAP peptides of CDP-1, CDP-2, CDP-3, and CDP-4) was investigated by the same method as in (i) to evaluate the specificity of the respective peptides to Crohn's disease patient sera.

Substance	reaction-inhibiting activity, Patient serum sample No. 2 (Crohn's disease antibody)	reaction-inhibiting activity, Patient serum sample No. 7 (Crohn's disease antibody)	reaction-inhibiting activity, Patient serum sample No. 8 (Crohn's disease antibody)	Positive rate Ulcerative colitis patients [1]	reaction with ulcerative colitis patient sera or healthy volunteer sera [1]	Positive rate Healthy volunteers [1]
A A G E L R Q S D G Q Y Q M (AAGELRQSDGQYQM) [CDP3-2]	+++ (+++: reaction-inhibiting activity = 70%)	+++ (+++: reaction-inhibiting activity = 70%)	+++ (+++: reaction-inhibiting activity = 70%)	–	–	–
A E A E L R Q S D G Q Y Q M (AEAELRQSDGQYQM) [CDP3-3]	+++ (+++: reaction-inhibiting activity = 70%)	+++ (+++: reaction-inhibiting activity = 70%)	+++ (+++: reaction-inhibiting activity = 70%)	–	–	–
A E G A L R Q S D G Q Y Q M (AEGALRQSDGQYQM) [CDP3-4]	+++ (+++: reaction-inhibiting activity = 70%)	+++ (+++: reaction-inhibiting activity = 70%)	+++ (+++: reaction-inhibiting activity = 70%)	–	–	–
A E G E A R Q S D G Q Y Q M (AEGEARQSDGQYQM) [CDP3-5]	+++ (+++: reaction-inhibiting activity = 70%)	+++ (+++: reaction-inhibiting activity = 70%)	+++ (+++: reaction-inhibiting activity = 70%)	–	–	–
A E G E L A Q S D G Q Y Q M (AEGELAQSDGQYQM) [CDP3-6]	+++ (+++: reaction-inhibiting activity = 70%)	+++ (+++: reaction-inhibiting activity = 70%)	+++ (+++: reaction-inhibiting activity = 70%)	–	–	–
A E G E L R A S D G Q Y Q M (AEGELRASDGQYQM) [CDP3-7]	− (−: reaction-inhibiting activity = 30%)	− (−: reaction-inhibiting activity = 30%)	− (−: reaction-inhibiting activity = 30%)	–	–	–
A E G E L R Q A D G Q Y Q M (AEGELRQADGQYQM) [CDP3-8]	+++ (+++: reaction-inhibiting activity = 70%)	+++ (+++: reaction-inhibiting activity = 70%)	+++ (+++: reaction-inhibiting activity = 70%)	–	–	–
A E G E L R Q S A G Q Y Q M (AEGELRQSAGQYQM) [CDP3-9]	− (−: reaction-inhibiting activity = 30%)	+ (+: reaction-inhibiting activity between 30% and 50%)	− (−: reaction-inhibiting activity = 30%)	–	–	–
A E G E L R Q S D A Q Y Q M (AEGELRQSDAQYQM) [CDP3-10]	+ (+: reaction-inhibiting activity between 30% and 50%)	+++ (+++: reaction-inhibiting activity = 70%)	+++ (+++: reaction-inhibiting activity = 70%)	–	–	–
A E G E L R Q S D G A Y Q M (AEGELRQSDGAYQM) [CDP3-11]	− (−: reaction-inhibiting activity = 30%)	+ (+: reaction-inhibiting activity between 30% and 50%)	− (−: reaction-inhibiting activity = 30%)	–	–	–
A E G E L R Q S D G Q A Q M (AEGELRQSDGQAQM) [CDP3-12]	+++ (+++: reaction-inhibiting activity = 70%)	+++ (+++: reaction-inhibiting activity = 70%)	+++ (+++: reaction-inhibiting activity = 70%)	–	–	–
A E G E L R Q S D G Q Y A M (AEGELRQSDGQYAM) [CDP3-13]	+ (+: reaction-inhibiting activity between 30% and 50%)	+++ (+++: reaction-inhibiting activity = 70%)	++ (++: reaction-inhibiting activity between 50% and 70%)	–	–	–
A E G E L R Q S D G Q Y Q A (AEGELRQSDGQYQA) [CDP3-14]	+++ (+++: reaction-inhibiting activity = 70%)	+++ (+++: reaction-inhibiting activity = 70%)	+++ (+++: reaction-inhibiting activity = 70%)	–	–	–
AEGELGGIYQDLVSGDPA [CDP-4]	–	–	–	5% (1/20)	did not appreciably react	4.2% (2/48)
AEGELGLLAQQMDYADPA [CDP-1]	–	–	–	0% (0/20)	did not appreciably react	4.2% (2/48)
AEGELRQSDGQYQMGDPA [CDP-3]	–	–	–	0% (0/20)	did not appreciably react	0% (0/48)
AEGELYRWLPPSSAGDPA [CDP-2]	–	–	–	5% (1/20)	did not appreciably react	2.1% (1/48)
S E G E L R Q S D G Q Y Q M (SEGELRQSDGQYQM) [CPP3-1]	+++ (+++: reaction-inhibiting activity = 70%)	+++ (+++: reaction-inhibiting activity = 70%)	+++ (+++: reaction-inhibiting activity = 70%)	–	–	–
